From patent US20190119284A1, “ErbB Inhibitors and Uses Thereof” (The Regents of the University of California, priority 2016, published 2019) come the findings set out here.

One test relates to wt HER2 or HER2 T798M. The test is described as follows: HEK-293T cells transfected with wt HER2 or HER2 T798M. Type of test: cell-based. Conditions: HER2 T798M vs wt, 1 nM-10 μM.
In the next test the target is P38-ALPHA (Homo sapiens, UniProt Q16539). The test can be described thus: Nanosyn in vitro kinase profiling: P38-ALPHA. Type of test: biochemical. Conditions: for inhibition at 1 µM: compound at 1 μM. On the procedure:
(§1) This was confirmed by in vitro profiling against a panel of kinases, with compound 2 only showing potent inhibition of EGFR and Ab1 (Table 2).
(§2) In vitro Kinome Screen. In vitro profiling of compound 2 at 100 nM was conducted by Nanosyn.

A further test concerns the target CSK (Homo sapiens, UniProt P41240). The test can be described thus: Nanosyn in vitro kinase profiling: CSK. Type of test: biochemical. The settings on record: for inhibition at 1 µM: compound at 1 μM. The procedure: as §1, §2
A further test concerns the target MAP4K4 (Homo sapiens, UniProt O95819). The test can be described thus: Nanosyn in vitro kinase profiling: MAP4K4. Type of test: biochemical. Conditions: for inhibition at 1 µM: compound at 1 μM. On the procedure: as §1, §2
A further test addresses MET (Homo sapiens, UniProt P08581). The test is described as follows: Nanosyn in vitro kinase profiling: MET. The settings on record: for inhibition at 1 µM: compound at 1 μM. Format: biochemical. The procedure:
as §1, §2

For another test, the target named is KDR (Homo sapiens, UniProt P35968). The test is described as follows: Nanosyn in vitro kinase profiling: KDR. Type of test: biochemical. The settings on record: for inhibition at 1 µM: compound at 1 μM. The procedure:
as §1, §2

The target in the next test is T1, HER3 kinase domain (Homo sapiens, UniProt P21860).
T1 construct: added to 19 μL of the HER3 kinase domain in reaction buffer; made in house; host or cells: baculovirus/insect cells (inferred from the pFastBac plasmid)
The test is described as follows: HER3 Thermofluor Assay. Format: binding. The settings on record: 20 μM inhibitor. The procedure: HER3 Thermofluor Assay. The HER3 gatekeeper mutation (T787M) was introduced into the HER3 tyrosine kinase domain in the pFastBac plasmid using standard protocols. Both wt and T787M HER3 were purified according to the previously published protocols. Thermofluor reactions were performed in duplicate and set up as follows. 1 μL of an inhibitor or DMSO dilution in 40% DMSO:water was added to 19 μL of the HER3 kinase domain in reaction buffer. The final reaction solution contained 100 mM MOPS, 200 mM NaCl, 5% glycerol, 5 mM MgCl2, 0.1 mM DTT, 5× SYPRO orange, 2 μM kinase, 2% DMSO and 20 μM inhibitor in the wells of a 96-well, low profile, white, PCR plate (USA scientific). The solution was pipetted up and down to mix, sealed with TempAssure clear PCR flat caps (USA Scientific), centrifuged at 500×g for 30 s, and heated in a Stratagene Mx3005P RT-PCR machine from 25° C. to 95° C. in 0.5° C. increments every 30 s after an initial incubation at 25° C. for 10 min. Fluorescence was measured at the end of each 30 s period with an excitation wavelength of 492 nm and an emission wavelength of 610 nm. […] Values after the well had reached a maximum signal were discarded and the signals were fit to the Boltzmann equation in Graphpad Prism 6. ΔTm was calculated as the difference in melting temperature between the compound treated kinase compared to the DMSO control.
For orientation: In DSF a fluorescence change marks the thermal transition of the protein.

In test [1] the target is mutationally activated forms of EGFR (Homo sapiens, UniProt P00533, DEL746-750). The test can be described thus: EGFR phosphosite signaling in NCI-H1650 cells. Format: cell-based. Further details: endogenous in cells; host or cells: NCI-H1650 (A2). Conditions: concentration giving near complete inhibition.
In test [2] the test system is 2YF/3wt + IL-3 Ba/F3 cells. The test can be described thus: Ba/F3 proliferation assay, 2YF/3wt + IL-3. Format: cell-based. The settings on record: Mus musculus, BaF3; Table 4; ± S.D., n = 3; 48 h Cell Titer Glo. On the procedure:
To validate the screen and test the effectiveness of counter-screening with either the same 2YF/3wt Ba/F3 cell line or the parental Ba/F3's in the presence of IL-3 to remove cytotoxic primary hits, we first tested a panel of kinase inhibitors with established mechanisms of action.
Proliferation Assays. For adherent cell lines, cells were plated onto opaque white 96 well plates (Greiner cat #655083) and allowed to adhere overnight. The following day media was changed to fresh media that contained either DMSO or the indicated concentration of drug plus NRG (50 ng/mL final concentration) as indicated. Plates were incubated at 37° C. for 72 h and proliferation was read out using Cell Titer Glo (Promega) according to the manufacturer's protocol. For Ba/F3 cell proliferation, cells, drug dilution, and any necessary growth factors (10 ng/mL IL-3 or 6.25 ng/mL NRG) were combined in a well of a 96 well plate. Plates were incubated at 37° C. for 48 h and proliferation was read out using Cell Titer Glo according to the manufacturer's protocol. For all normalized assays, proliferation was normalized to the DMSO control condition. All graphs were plotted in GraphPad Prism 6 and fit with a non-linear regression of the log(inhibitor) vs response with a variable slope where shown. All graphs are averages (+/−standard deviation) of biological triplicates each performed in technical triplicate unless otherwise noted. If only one biological replicate was performed standard deviations were derived from the technical replicates.
(In general: Cellular ATP, detected with luciferase, serves as a proxy for viable cell number.)

Test [3] relates to NRG autocrine signaling in CHL-1 cells. The test is described as follows: NRG autocrine feedback signaling in CHL-1 cells (immunoblot). Format: cell-based. Conditions: CHL-1 cells pre-treated with lapatinib 24 h, washed, drug 24 h; at 1 μM. The procedure: Similar results were obtained in FaDu cells, which are also dependent on NRG autocrine signaling (FIGS. 20A-20B).
Immunoblotting. Cells were grown in 6 well plates and treated according to the indicated conditions at which point the media was aspirated, cells were washed with 1 mL of cold PBS, which was then aspirated and the plates were frozen at −80° C. The frozen cells were thawed on the plates in a buffer containing 50 mM Tris pH 7.5, 150 mM NaCl, 1 mM EDTA, and 1% Triton X-100 supplemented with 1× phosphatase (PhoSTOP, Roche) and 1× protease (complete-mini tablets, Roche) inhibitors. Lysates were scraped, transferred to Eppendorf tubes, and cleared by centrifugation at 20,000×g for 20 min at 4° C. The clarified lysates were transferred to chilled, clean tubes, and normalized for protein concentration by Bradford (Bio-Rad). The normalized lysates were diluted with Laemmli loading buffer, and 10 μg of total protein was run on a 4-12% gradient gel (Invitrogen), which was then transferred to […] nitrocellulose (Bio-Rad) and analyzed using the indicated primary antibodies according to the manufacturer's recommendations. Primary antibodies were detected using IRDye secondary antibodies (Li-Cor) according to the manufacturer's recommendations and scanned on an Odyssey imager (Li-Cor). Scanned images were cropped and assembled in Adobe Illustrator 6.
On the technique in general: Immunoblotting shows a protein as a band on a membrane.

Test [4] relates to HER2/HER3 signaling in CHL-1 cells. The test is described as follows: HER2/HER3 signaling in CHL-1 cells. The settings on record: compared with lapatinib. Format: cell-based.

Chain of P38-ALPHA (Q16539 whole entry): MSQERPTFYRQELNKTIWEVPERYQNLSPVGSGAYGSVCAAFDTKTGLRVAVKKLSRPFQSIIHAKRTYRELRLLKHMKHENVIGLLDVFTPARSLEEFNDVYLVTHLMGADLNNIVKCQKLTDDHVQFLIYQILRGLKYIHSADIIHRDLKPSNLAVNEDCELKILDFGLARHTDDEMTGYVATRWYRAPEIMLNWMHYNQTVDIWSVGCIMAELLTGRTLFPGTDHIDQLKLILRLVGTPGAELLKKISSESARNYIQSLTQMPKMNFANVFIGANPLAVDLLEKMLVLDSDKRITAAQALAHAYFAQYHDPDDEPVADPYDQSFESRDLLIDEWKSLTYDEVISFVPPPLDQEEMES
Chain of CSK (P41240 whole entry, species assumed): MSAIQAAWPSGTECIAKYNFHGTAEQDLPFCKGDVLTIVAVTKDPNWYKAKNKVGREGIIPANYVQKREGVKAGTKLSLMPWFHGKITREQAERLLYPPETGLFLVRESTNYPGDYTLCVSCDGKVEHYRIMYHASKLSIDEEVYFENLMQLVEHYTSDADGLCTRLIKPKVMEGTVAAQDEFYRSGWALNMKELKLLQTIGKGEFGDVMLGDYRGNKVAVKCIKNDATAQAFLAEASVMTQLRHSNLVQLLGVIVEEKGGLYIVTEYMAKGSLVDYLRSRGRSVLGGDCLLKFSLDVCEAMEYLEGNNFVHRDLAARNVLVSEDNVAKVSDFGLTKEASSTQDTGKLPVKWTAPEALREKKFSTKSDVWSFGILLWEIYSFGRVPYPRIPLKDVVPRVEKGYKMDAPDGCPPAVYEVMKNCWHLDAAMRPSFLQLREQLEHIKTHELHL
Chain of MAP4K4 (O95819 whole entry): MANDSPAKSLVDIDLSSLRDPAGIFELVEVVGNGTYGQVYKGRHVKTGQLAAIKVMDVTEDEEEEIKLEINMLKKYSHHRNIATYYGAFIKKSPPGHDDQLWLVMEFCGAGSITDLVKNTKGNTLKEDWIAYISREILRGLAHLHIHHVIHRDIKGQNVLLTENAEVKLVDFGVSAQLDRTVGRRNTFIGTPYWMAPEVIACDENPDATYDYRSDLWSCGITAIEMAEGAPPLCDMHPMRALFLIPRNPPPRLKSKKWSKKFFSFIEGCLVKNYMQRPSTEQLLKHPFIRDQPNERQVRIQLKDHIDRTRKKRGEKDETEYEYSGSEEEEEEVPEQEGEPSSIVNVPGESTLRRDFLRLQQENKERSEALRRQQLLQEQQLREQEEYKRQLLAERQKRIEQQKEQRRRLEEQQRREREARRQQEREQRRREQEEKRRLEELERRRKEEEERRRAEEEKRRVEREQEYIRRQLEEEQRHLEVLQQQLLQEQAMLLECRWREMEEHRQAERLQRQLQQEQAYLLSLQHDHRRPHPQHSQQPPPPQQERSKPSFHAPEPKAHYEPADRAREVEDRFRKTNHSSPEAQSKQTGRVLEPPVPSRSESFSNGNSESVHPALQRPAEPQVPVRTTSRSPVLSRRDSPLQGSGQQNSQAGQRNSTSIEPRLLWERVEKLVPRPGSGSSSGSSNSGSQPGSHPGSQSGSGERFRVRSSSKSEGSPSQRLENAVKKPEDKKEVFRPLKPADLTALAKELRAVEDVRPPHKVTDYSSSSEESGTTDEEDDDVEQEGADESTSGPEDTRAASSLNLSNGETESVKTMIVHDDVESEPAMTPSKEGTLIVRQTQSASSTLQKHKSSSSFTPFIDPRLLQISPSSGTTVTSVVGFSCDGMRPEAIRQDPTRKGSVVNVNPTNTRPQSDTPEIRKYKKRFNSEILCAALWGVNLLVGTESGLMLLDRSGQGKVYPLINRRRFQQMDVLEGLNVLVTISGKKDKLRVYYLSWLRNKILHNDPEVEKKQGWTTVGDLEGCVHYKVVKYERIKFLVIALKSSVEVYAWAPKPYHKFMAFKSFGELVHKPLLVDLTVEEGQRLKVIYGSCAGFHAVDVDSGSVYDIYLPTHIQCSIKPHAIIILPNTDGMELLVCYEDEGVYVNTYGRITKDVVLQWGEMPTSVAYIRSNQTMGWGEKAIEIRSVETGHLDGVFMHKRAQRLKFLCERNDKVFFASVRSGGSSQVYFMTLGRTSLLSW
Chain of KDR (P35968 20-1356): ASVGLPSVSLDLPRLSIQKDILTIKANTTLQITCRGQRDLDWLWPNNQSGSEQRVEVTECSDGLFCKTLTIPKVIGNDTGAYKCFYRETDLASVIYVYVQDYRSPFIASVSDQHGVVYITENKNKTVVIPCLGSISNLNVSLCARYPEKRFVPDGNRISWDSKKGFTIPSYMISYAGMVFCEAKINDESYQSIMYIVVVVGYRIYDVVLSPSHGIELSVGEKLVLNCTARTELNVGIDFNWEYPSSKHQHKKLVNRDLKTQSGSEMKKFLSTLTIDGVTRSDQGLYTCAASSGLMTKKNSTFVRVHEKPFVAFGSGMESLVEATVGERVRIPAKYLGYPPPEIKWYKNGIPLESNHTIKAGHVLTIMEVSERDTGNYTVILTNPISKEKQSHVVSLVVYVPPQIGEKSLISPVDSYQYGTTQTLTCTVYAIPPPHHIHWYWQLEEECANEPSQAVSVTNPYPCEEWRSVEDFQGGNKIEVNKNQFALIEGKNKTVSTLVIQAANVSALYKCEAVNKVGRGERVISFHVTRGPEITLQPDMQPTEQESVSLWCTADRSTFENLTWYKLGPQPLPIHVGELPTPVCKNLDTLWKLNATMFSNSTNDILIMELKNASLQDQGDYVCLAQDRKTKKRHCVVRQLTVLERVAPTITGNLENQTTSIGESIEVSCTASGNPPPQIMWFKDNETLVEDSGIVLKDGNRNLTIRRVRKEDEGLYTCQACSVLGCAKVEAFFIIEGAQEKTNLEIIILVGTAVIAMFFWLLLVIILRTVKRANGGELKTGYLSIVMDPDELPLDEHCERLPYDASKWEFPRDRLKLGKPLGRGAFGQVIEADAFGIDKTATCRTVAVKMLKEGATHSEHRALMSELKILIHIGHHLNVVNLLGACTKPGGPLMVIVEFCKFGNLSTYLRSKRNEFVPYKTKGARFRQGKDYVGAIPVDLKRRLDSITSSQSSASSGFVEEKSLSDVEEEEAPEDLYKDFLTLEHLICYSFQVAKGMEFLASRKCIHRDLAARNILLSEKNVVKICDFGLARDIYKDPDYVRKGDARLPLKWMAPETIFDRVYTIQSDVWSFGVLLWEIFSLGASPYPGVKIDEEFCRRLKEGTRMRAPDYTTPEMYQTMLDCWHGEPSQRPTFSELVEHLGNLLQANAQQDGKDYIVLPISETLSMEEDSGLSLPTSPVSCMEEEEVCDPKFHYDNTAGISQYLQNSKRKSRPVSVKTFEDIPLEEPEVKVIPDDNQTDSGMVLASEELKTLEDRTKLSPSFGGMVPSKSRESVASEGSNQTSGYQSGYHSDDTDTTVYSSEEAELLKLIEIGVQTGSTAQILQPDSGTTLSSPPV
Chain of MET (P08581 25-1390): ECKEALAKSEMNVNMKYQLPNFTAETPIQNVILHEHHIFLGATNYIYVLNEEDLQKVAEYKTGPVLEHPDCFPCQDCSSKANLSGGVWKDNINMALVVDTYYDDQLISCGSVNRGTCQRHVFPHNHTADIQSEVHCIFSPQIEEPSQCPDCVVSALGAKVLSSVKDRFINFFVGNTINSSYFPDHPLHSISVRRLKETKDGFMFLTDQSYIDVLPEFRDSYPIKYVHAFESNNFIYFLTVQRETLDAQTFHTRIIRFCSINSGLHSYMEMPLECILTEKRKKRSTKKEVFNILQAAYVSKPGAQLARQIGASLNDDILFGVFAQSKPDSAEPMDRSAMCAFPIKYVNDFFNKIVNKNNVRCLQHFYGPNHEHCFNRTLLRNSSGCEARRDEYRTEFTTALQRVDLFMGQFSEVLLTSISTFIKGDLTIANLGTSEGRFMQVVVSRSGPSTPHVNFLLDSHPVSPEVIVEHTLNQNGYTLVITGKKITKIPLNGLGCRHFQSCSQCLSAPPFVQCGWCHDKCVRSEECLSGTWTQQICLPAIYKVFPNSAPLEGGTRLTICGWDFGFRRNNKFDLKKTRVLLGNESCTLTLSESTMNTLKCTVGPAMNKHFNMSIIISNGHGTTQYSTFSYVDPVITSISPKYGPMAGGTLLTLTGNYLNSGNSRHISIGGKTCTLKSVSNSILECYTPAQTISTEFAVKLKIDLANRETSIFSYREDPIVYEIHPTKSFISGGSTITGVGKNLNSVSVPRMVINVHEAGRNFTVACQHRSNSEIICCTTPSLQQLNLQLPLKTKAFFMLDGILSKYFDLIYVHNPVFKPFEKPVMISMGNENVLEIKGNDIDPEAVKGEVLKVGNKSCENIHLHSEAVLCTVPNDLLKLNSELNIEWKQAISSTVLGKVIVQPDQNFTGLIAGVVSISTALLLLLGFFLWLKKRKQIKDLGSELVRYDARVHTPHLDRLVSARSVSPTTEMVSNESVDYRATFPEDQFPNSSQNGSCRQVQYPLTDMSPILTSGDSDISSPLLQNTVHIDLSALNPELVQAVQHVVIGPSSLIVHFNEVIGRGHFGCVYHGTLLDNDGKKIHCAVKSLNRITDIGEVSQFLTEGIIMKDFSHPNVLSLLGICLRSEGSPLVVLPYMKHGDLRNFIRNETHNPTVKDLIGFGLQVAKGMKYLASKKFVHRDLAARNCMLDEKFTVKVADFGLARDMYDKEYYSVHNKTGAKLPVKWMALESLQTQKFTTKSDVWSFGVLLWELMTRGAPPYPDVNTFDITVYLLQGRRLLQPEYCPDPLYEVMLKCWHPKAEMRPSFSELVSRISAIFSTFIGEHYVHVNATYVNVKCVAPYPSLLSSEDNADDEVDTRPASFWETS
T1 sequence (P21860 709-966 limits assumed): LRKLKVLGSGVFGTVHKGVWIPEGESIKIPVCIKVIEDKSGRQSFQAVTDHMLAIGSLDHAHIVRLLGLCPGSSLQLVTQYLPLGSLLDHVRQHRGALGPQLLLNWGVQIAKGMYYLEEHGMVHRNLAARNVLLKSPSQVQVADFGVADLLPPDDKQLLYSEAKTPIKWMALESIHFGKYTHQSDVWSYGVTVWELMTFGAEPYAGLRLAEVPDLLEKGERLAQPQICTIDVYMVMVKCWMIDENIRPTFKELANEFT

For orientation: inhibition means how much of the control response was suppressed. Read a high inhibition as strong suppression. In the case of `COc1ccc(-c2ccco2)cc1Nc1ncnc2[nH]nc(-c3ccco3)c12` [compound 2, 3-(furan-2-yl)-N-(5-(furan-2-yl)-2-methoxyphenyl)-1H-pyrazolo[3,4-d]pyrimidin-4-amine], the “effect of gatekeeper mutation on binding affinity” value in the test on wt HER2 or HER2 T798M is “reduces the binding affinity”. In addition, the inhibition at 0.1 µM at P38-ALPHA (compound at 100 nM) is 6.61%; against CSK (compound at 100 nM), 6.96%; against MAP4K4 (compound at 100 nM) it was 36.5%; against MET (compound at 100 nM), 2.04%; against KDR (compound at 100 nM), 27.3%. Besides, the inhibition at 1 µM on P38-ALPHA came to 12.9%; against CSK, 24.8%; against MAP4K4, 78.7%; on MET, 10.1%; against KDR, 71.3%. Moreover, the “binding to HER3” value on HER3 kinase domain was “capable of binding to HER3”.

The IC50 is the concentration needed to halve the response being measured. Regarding `COc1ccc(-c2ccoc2)cc1Nc1ncnc2[nH]cc(-c3cc[nH]n3)c12` [compound 3, N-(5-(furan-3-yl)-2-methoxyphenyl)-5-(1H-pyrazol-3-yl)-7H-pyrrolo[2,3-d]pyrimidin-4-amine], the “near complete inhibition of multiple phosphosites on EGFR” value in test [1] is “less than 10 nM”. Besides, the inhibition at 1 µM against P38-ALPHA came to 2%; against CSK it was 62%; against MAP4K4, 100%; against MET it was 16%; on KDR, 74%. Further, the IC50 in test [2] stood at 2.54 ± 0.217 µM. Moreover, in test [3], the “inhibition of feedback-released signaling” value is recorded as “complete inhibition”. Further, the “inhibition of feedback activated HER2/HER3 signaling” value in test [4] (CHL-1, after 24 h DMSO or 500 nM lapatinib, then 24 h dose response) was “better able to inhibit feedback activated HER2/HER3 signaling”. Further, in [4] (CHL-1, dose response 24 h), the “inhibition of p-HER3 and PI3K/Akt pathway” value was “better able to inhibit p-HER3 and thus the PI3K/Akt pathway”.

With `CS(=O)(=O)CCNCc1ccc(-c2ccc3ncnc(Nc4ccc(OCc5cccc(F)c5)c(Cl)c4)c3c2)o1` [lapatinib], the IC50 in test [2] is above 3.33 µM.
